Measured values taken from the supplement of paper PMC10307832.

Legend:
Experiment in all cases: relative viability (nuclei count vs DMSO), 5 days (fraction); higher = more cells survive
[1] = compound: C1=CC=C2C(=C1)N=C(S2)C(C#N)C3=NC(=NC=C3)NCCC4=CN=CC=C4 + CC(=O)Nc1cccc(-n2c(=O)n(C3CC3)c(=O)c3c(Nc4ccc(I)cc4F)n(C)c(=O)c(C)c32)c1 [Trametinib] (partner 0.02 µM)
In short: (§1)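 Lung cancer cell lines were pin-tool dosed in 1536-well plates on the day after seeding, with either a lone drug or a fixed anchor-drug dose plus five library-drug doses (not always all listed) in √10 steps. Nuclei were counted on 4× images after 5 days. Relative viability is the ratio of treated-well to vehicle-well nuclei counts, with each value a median of duplicate plates.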

Vandetanib + Trametinib = compound: COc1cc2/c(=N/c3ccc(Br)cc3F)nc[nH]c2cc1OCC1CCN(C)CC1 [Vandetanib] + CC(=O)Nc1cccc(-n2c(=O)n(C3CC3)c(=O)c3c(Nc4ccc(I)cc4F)n(C)c(=O)c(C)c32)c1 [Trametinib] (partner 0.02 µM)
In short: as §1

[2] = compound: C1=CC=C2C(=C1)N=C(S2)C(C#N)C3=NC(=NC=C3)NCCC4=CN=CC=C4 + COc1cc2c(Oc3ccc(NC(=O)C4(C(=O)Nc5ccc(F)cc5)CC4)cc3F)ccnc2cc1OCCCN1CCOCC1 [Foretinib] (partner 0.25 µM)
In short: as §1

NVP-TAE684 + Vorinostat = compound: COc1cc(N2CCC(N3CCN(C)CC3)CC2)ccc1Nc1ncc(Cl)c(Nc2ccccc2S(=O)(=O)C(C)C)n1 [NVP-TAE684] + O=C(CCCCCCC(=O)Nc1ccccc1)NO [Vorinostat] (partner 1 µM)
In short: as §1

Row | Cell Line | relative viability ([1]; first compound 0.01581 µM) | relative viability ([1]; first compound 0.05 µM) | relative viability ([1]; first compound 0.1581 µM) | relative viability ([1]; first compound 0.5 µM) | relative viability (Vandetanib + Trametinib; first compound 0.02 µM) | relative viability (Vandetanib + Trametinib; first compound 0.06325 µM) | relative viability (Vandetanib + Trametinib; first compound 0.2 µM) | relative viability (Vandetanib + Trametinib; first compound 0.6325 µM) | relative viability (Vandetanib + Trametinib; first compound 2 µM) | relative viability ([1]; first compound 0.005 µM) | relative viability ([2]; first compound 0.005 µM) | relative viability ([2]; first compound 0.01581 µM) | relative viability ([2]; first compound 0.05 µM) | relative viability ([2]; first compound 0.1581 µM) | relative viability ([2]; first compound 0.5 µM) | relative viability (NVP-TAE684 + Vorinostat; first compound 0.2 µM) | relative viability (NVP-TAE684 + Vorinostat; first compound 0.6325 µM) | relative viability (NVP-TAE684 + Vorinostat; first compound 2 µM)
1 | NCI-H1792 | 0.44 | 0.421 | 0.387 | 0.385 | 0.407 | 0.413 | 0.463 | 0.502 | 0.354 | – | – | – | – | – | – | – | – | –
2 | HCC-15 | 0.418 | 0.369 | 0.378 | 0.356 | 0.386 | 0.362 | 0.37 | 0.395 | 0.369 | 0.396 | 0.853 | 1.07 | 0.984 | 1.2 | 1.01 | 0.841 | 0.855 | 0.521
3 | NCI-H1755 | 0.736 | 0.746 | 0.848 | 0.761 | 0.749 | 0.731 | 0.794 | 0.749 | 0.751 | 0.764 | 0.915 | 0.991 | 0.945 | 0.936 | 0.939 | 0.768 | 0.744 | 0.635
4 | NCI-H23 | 0.436 | 0.391 | 0.406 | 0.45 | 0.382 | 0.342 | 0.335 | 0.455 | 0.293 | – | 0.83 | 0.995 | 0.873 | 1.02 | 1.07 | 0.844 | 0.463 | 0.362
5 | BEN | 1.11 | 1.15 | 1.05 | 1.2 | 1.09 | 1.01 | 0.985 | 1 | 0.798 | 1.08 | 0.658 | 0.557 | 0.684 | 0.847 | 0.858 | 0.547 | 0.524 | 0.419
6 | NCI-H1651 | 0.831 | 0.827 | 0.933 | 0.857 | 0.822 | 0.818 | 0.83 | 0.876 | 0.727 | 0.825 | 0.687 | 0.872 | 0.774 | 0.801 | 0.757 | 0.635 | 0.537 | 0.508
7 | NCI-H2126 | 0.613 | 0.559 | 0.546 | 0.58 | 0.58 | 0.546 | 0.556 | 0.502 | 0.504 | 0.536 | 1.14 | 1.2 | 1.22 | 1.19 | 1.34 | 0.808 | 0.732 | 0.443
8 | EKVX | 0.328 | 0.282 | 0.299 | 0.294 | 0.37 | 0.289 | 0.281 | 0.294 | 0.212 | 0.228 | 0.8 | 0.833 | 0.83 | 0.79 | 0.777 | 0.677 | 0.699 | 0.373
9 | NCI-H1650 | 0.492 | 0.604 | 0.715 | 0.513 | 0.618 | 0.409 | 0.461 | 0.483 | 0.364 | 0.49 | 1.02 | 1.38 | 0.919 | 1.55 | 0.787 | 0.573 | 0.561 | 0.502
10 | NCI-H1703 | – | – | – | – | – | – | – | – | – | – | 0.391 | 0.37 | 0.381 | 0.318 | 0.336 | – | – | –
